Assay results from patent publication US11690810B2, “Combination treatment of bacterial infection” (The Chinese University of Hong Kong, priority 2018, dated 2023).

How the values were obtained:
Experiment in all cases: MIC and checkerboard (FIC) assay
[1] = tested on: CA MRSA W44
[2] = tested on: MRSA SA-ST239
[3] = tested on: clinical fusidic acid resistant MRSA strain 73621; format: cell-based, Staphylococcus aureus; details: for FIC / MIC combine: 73621
[4] = tested on: HA MRSA W234
[5] = tested on: HA MRSA W233
[6] = tested on: CA MRSA W48
[7] = tested on: HA MRSA W231
[8] = tested on: CA MRSA W45
[9] = tested on: clinical fusidic acid resistant MRSA strain 82356; format: cell-based, Staphylococcus aureus; details: for FIC / MIC combine: 82356
[10] = tested on: HA MRSA W238
[11] = tested on: CA MRSA W46
[12] = tested on: CA MRSA W101
[13] = tested on: clinical fusidic acid resistant MRSA strain 96591; format: cell-based, Staphylococcus aureus; details: for FIC / MIC combine: 96591
[14] = tested on: HA MRSA W239
[15] = tested on: CA MRSA W114
[16] = tested on: S. aureus SA-ANT4′ (ANT4), resistant to fusidic acid; details: for FIC / MIC combine: ANT4
[17] = tested on: S. aureus ATCC25923 (methicillin sensitive); details: Staphylococcus aureus
[18] = tested on: CA MRSA W103
[19] = tested on: HA MRSA W240
[20] = Staphylococcus aureus, MRSA, read-out: MIC alone
[21] = ST239, ECG with WQD-169 (Kuraridin)

O=C(O[C@@H]1Cc2c(O)cc(O)cc2O[C@@H]1c1ccc(O)c(O)c1)c1cc(O)c(O)c(O)c1 [ECG, epicatechin gallate]
4 µg/mL: MIC combine [2, 21] | MIC combine ([7]; W231, ECG+Kur, no Gen) | MIC combine ([16]; ECG+Kur+Fus) | MIC combine ([19]; W240, ECG with Kur)
> 512 µg/mL: MIC99 ([2]; Staphylococcus aureus, MRSA, read-out: MIC 99.9) | MIC99 ([16]; Staphylococcus aureus, read-out: MIC 99.9) | MIC99 ([17]; ATCC25923, read-out: MIC 99.9)
0.0009: FIC ([2]; ST239, ECG with WQD-165) | FIC ([2]; ST239, ECG with WQD-175) | FIC ([14]; W239, ECG+Kur+Van)
0.004: FIC ([1]; W44, ECG with Kur) | FIC ([2]; ST239, ECG with Kur) | FIC ([3]; ECG+Kur+Fus) | FIC ([5]; W233, ECG with Kur)
16 µg/mL: MIC90 ([2]; Staphylococcus aureus, MRSA) | MIC combine ([3]; ECG+Kur, no Fus) | MIC combine ([5]; W233, ECG+Kur, no Gen) | MIC combine ([13]; ECG+Kur, no Fus) | MIC combine ([16]; ECG+Kur, no Fus) | MIC combine ([16]; Kuraridin with ECG)
0.5 µg/mL: MIC combine ([2]; ST239, ECG with WQD-165) | MIC combine ([2]; ST239, ECG with WQD-175) | MIC combine ([10]; W238, ECG+Kur, no Gen) | MIC combine ([14]; W239, ECG+Kur+Van)
0.008: FIC ([7]; W231, ECG+Kur, no Gen) | FIC ([9]; ECG+Kur+Fus) | FIC ([19]; W240, ECG with Kur)
0.0007: FIC ([16]; ECG+Kur+Fus)
8 µg/mL: MIC combine ([5]; W233, ECG+Kur+Van) | MIC combine ([7]; W231, ECG with Kur) | MIC combine ([9]; ECG+Kur, no Fus) | MIC combine ([11]; W46, ECG with Kur) | MIC90 ([16]; Staphylococcus aureus)
128 µg/mL: MIC90 ([17]; ATCC25923)
0.003: FIC ([3]; ECG+Kur, no Fus) | FIC ([13]; ECG+Kur, no Fus)
1 µg/mL: MIC combine ([4]; W234, ECG with Kur) | MIC combine ([6]; W48, ECG with Kur) | MIC combine ([6]; W48, ECG+Kur+Van) | MIC combine ([8]; W45, ECG with Kur) | MIC combine ([10]; W238, ECG with Kur) | MIC combine ([11]; W46, ECG+Kur+Van) | MIC combine ([12]; W101, ECG with Kur) | MIC combine ([14]; W239, ECG with Kur) | MIC combine ([15]; W114, ECG with Kur) | MIC combine ([18]; W103, ECG with Kur)
0.002: FIC ([4]; W234, ECG with Kur) | FIC ([6]; W48, ECG with Kur) | FIC ([6]; W48, ECG+Kur+Van) | FIC ([8]; W45, ECG with Kur) | FIC ([10]; W238, ECG with Kur) | FIC ([11]; W46, ECG+Kur+Van) | FIC ([12]; W101, ECG with Kur) | FIC ([13]; ECG+Kur+Fus) | FIC ([14]; W239, ECG with Kur) | FIC ([15]; W114, ECG with Kur) | FIC ([18]; W103, ECG with Kur)
0.015: FIC ([11]; W46, ECG with Kur)
0.016: FIC ([7]; W231, ECG with Kur) | FIC ([9]; ECG+Kur, no Fus)
0.25 µg/mL: MIC combine ([1]; W44, ECG+Kur+Van) | MIC combine ([2]; ST239, ECG+Kur+Van) | MIC combine ([3]; ECG+Kur+Fus) | MIC combine ([5]; W233, ECG+Kur+Gen) | MIC combine ([7]; W231, ECG+Kur+Gen) | MIC combine ([8]; W45, ECG+Kur+Van) | MIC combine ([9]; ECG+Kur+Fus) | MIC combine ([10]; W238, ECG+Kur+Gen) | MIC combine ([10]; W238, ECG+Kur+Van) | MIC combine ([13]; ECG+Kur+Fus)
0.0005: FIC ([5]; W233, ECG+Kur+Gen)
512 µg/mL: MIC [1, 20] | MIC alone ([1]; W44, Table 5) | MIC alone ([2]; ST239, Table 5) | MIC [2, 20] | MIC alone ([2]; Strain ST239, Table 9) | MIC [3, 20] | MIC [4, 20] | MIC [5, 20] | MIC alone ([5]; W233 (gentamicin resistant)) | MIC alone ([5]; W233, Table 5) | MIC [6, 20] | MIC alone ([6]; W48, Table 5) | MIC [7, 20] | MIC alone ([7]; W231 (gentamicin resistant)) | MIC alone ([7]; W231, Table 5) | MIC [8, 20] | MIC alone ([8]; W45, Table 5) | MIC [9, 20] | MIC [10, 20] | MIC alone ([10]; W238 (gentamicin resistant)) | MIC alone ([10]; W238, Table 5) | MIC [11, 20] | MIC alone ([11]; W46, Table 5) | MIC [12, 20] | MIC [13, 20] | MIC [14, 20] | MIC alone ([14]; W239, Table 5) | MIC [15, 20] | MIC alone ([16]; ANT4 (fusidic acid resistant)) | MIC ([16]; Staphylococcus aureus, read-out: MIC alone) | MIC ([17]; ATCC25293 / ATCC25923, read-out: MIC alone) | MIC [18, 20] | MIC [19, 20]
0.001: FIC ([2]; ST239, ECG with WQD-164)
0.007: FIC [2, 21]
2 µg/mL: MIC combine ([1]; W44, ECG with Kur) | MIC combine ([2]; ST239, ECG with Kur) | MIC combine ([2]; ST239, ECG with WQD-164) | MIC combine ([5]; W233, ECG with Kur)
0.0004: FIC ([1]; W44, ECG+Kur+Van) | FIC ([2]; ST239, ECG+Kur+Van) | FIC ([7]; W231, ECG+Kur+Gen) | FIC ([8]; W45, ECG+Kur+Van) | FIC ([10]; W238, ECG+Kur+Gen) | FIC ([10]; W238, ECG+Kur+Van) | FIC ([10]; W238, ECG+Kur, no Gen)
0.03: FIC ([5]; W233, ECG+Kur+Van) | FIC ([5]; W233, ECG+Kur, no Gen) | FIC ([16]; ECG+Kur, no Fus) | FIC ([16]; Kuraridin with ECG)
